System: beef muscle tissue (fillet mignon)
Assay: Tissue necrosis with AgNO3 bearing beads placed on the surface of beef muscle tissue
From the text: The degree of necrosis was rated as follows: slight visible pitting of the tissue surface (+); moderate pitting of tissue surface with slight blackening of the tissue (++); significant pitting with moderate blackening of the tissue (+++); severe pitting with complete blackening of the tissue ([…]+); and severe pitting with complete blackening of the tissue, spreading beyond the point of contact (+++++).

Which “Tissue Necrosis (degree of necrosis of the tissue under each bead)” value (“Tissue Necrosis” below) (Time 5 minutes) does the source give for `O=[N+]([O-])[O-].[Ag+]` [AgNO3 Crystal, silver nitrate] here?
The value was “+ + +”.

What about the “Tissue Necrosis” value (Time 10 minutes) of the same molecule?
The value was “+ + + +”.

What about the “Tissue Necrosis” value (Time 15 minutes) of the same molecule?
The value was “+ + + + +”.
